Laboratory results from ChEMBL document CHEMBL3734707, “Synthesis and biological evaluation of pyrazolopyrimidines as potential antibacterial agents” (2015).
The source made the active and inactive calls. The rule behind the calls is not given here.

Tests used:
[1] = biological target: T1, 4-diphosphocytidyl-2-C-methyl-D-erythritol kinase (Burkholderia thailandensis (strain ATCC 700388 / DSM 13276 / CIP106301 / E264)) (UniProt Q2T1B6); experiment: Binding affinity to Burkholderia thailandensis E264 recombinant IspE (1 to 293 residues) at 250 uM by STD-NMR analysis in presence of ADP and CDP
T1 sequence (whole entry): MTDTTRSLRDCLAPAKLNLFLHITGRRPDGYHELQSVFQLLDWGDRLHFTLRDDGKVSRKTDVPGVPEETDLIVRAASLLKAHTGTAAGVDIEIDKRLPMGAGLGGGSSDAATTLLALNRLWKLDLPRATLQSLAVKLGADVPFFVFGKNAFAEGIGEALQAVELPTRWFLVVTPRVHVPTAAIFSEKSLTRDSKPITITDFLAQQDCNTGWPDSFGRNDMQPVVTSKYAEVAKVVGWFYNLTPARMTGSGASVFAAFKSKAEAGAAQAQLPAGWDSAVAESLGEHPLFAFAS

[2] = biological target: T1, 4-diphosphocytidyl-2-C-methyl-D-erythritol kinase (Burkholderia thailandensis (strain ATCC 700388 / DSM 13276 / CIP106301 / E264)); experiment: Binding affinity to Burkholderia thailandensis E264 recombinant IspE (1 to 293 residues) at 250 uM by STD-NMR analysis in presence of ADP
[3] = biological target: T1, 4-diphosphocytidyl-2-C-methyl-D-erythritol kinase (Burkholderia thailandensis (strain ATCC 700388 / DSM 13276 / CIP106301 / E264)); experiment: Binding affinity to Burkholderia thailandensis E264 recombinant IspE (1 to 293 residues) assessed as maximum spectral signal at 250 uM by STD-NMR analysis
[4] = biological target: T2, 2-C-methyl-D-erythritol 4-phosphate cytidylyltransferase (Burkholderia thailandensis (strain ATCC 700388 / DSM 13276 / CIP106301 / E264)) (UniProt Q2SWT6); experiment: Binding affinity to Burkholderia thailandensis E264 recombinant IspD (1 to 236 residues) assessed as maximum spectral signal at 250 uM by STD-NMR analysis
T2 sequence (whole entry): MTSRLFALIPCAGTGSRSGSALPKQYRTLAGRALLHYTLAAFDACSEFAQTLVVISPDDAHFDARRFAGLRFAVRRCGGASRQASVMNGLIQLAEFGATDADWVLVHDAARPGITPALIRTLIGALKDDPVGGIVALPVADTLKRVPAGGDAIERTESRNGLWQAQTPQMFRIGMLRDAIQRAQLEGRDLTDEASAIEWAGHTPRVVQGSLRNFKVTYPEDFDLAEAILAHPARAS

[5] = biological target: T2, 2-C-methyl-D-erythritol 4-phosphate cytidylyltransferase (Burkholderia thailandensis (strain ATCC 700388 / DSM 13276 / CIP106301 / E264)); experiment: Binding affinity to Burkholderia thailandensis E264 recombinant IspD (1 to 236 residues) at 250 uM by STD-NMR analysis in presence of CDP
[6] = system: Burkholderia thailandensis; experiment: Antibacterial activity against Burkholderia thailandensis E264 at 0.1 mM after 24 to 48 hrs by Kirby-Bauer disc diffusion susceptibility test; format: functional; details: read-out: DIZ
Pseudomonas aeruginosa [7] = experiment: Antibacterial activity against Pseudomonas aeruginosa ATCC 27853 at 0.1 mM after 24 to 48 hrs by Kirby-Bauer disc diffusion susceptibility test; format: functional; details: read-out: DIZ
[8] = system: Burkholderia thailandensis; experiment: Antibacterial activity against Burkholderia thailandensis E264 at 1 mM after 24 to 48 hrs by Kirby-Bauer disc diffusion susceptibility test; format: functional; details: read-out: DIZ
Pseudomonas aeruginosa [9] = experiment: Antibacterial activity against Pseudomonas aeruginosa ATCC 27853 at 1 mM after 24 to 48 hrs by Kirby-Bauer disc diffusion susceptibility test; format: functional; details: read-out: DIZ
[10] = system: Burkholderia thailandensis; experiment: Antibacterial activity against Burkholderia thailandensis E264 at 0.5 mM after 24 to 48 hrs by Kirby-Bauer disc diffusion susceptibility test; format: functional; details: read-out: DIZ
Pseudomonas aeruginosa [11] = experiment: Antibacterial activity against Pseudomonas aeruginosa ATCC 27853 at 0.5 mM after 24 to 48 hrs by Kirby-Bauer disc diffusion susceptibility test; format: functional; details: read-out: DIZ

SMILES | Activity [1] | Activity [2] | %max [3] | %max [4] | Activity [5] | zone of inhibition at 100 µM [6] | zone of inhibition at 100 µM (Pseudomonas aeruginosa [7]) | zone of inhibition at 1000 µM [8] | zone of inhibition at 1000 µM (Pseudomonas aeruginosa [9]) | zone of inhibition at 500 µM [10] | zone of inhibition at 500 µM (Pseudomonas aeruginosa [11])
CC(C)(C)n1ncc2c(NCc3cccc([N+](=O)[O-])c3)ncnc21 | inactive | Active | 21% | – | – | – | – | – | – | – | –
C[C@H](Nc1ncnc2c1cnn2C)c1ccccc1 | inactive | Active | 17% | – | – | – | – | – | – | – | –
Cn1ncc2c(NCc3ccc(Cl)cc3)ncnc21 | inactive | Active | 12% | 6% | Active | – | – | – | – | – | –
Cn1ncc2c(NCCc3ccc(Cl)cc3)ncnc21 | inactive | Active | 12% | – | – | – | – | – | – | – | –
Cn1ncc2c(NCc3cccc(F)c3)ncnc21 | inactive | Active | 24% | – | – | – | – | – | – | – | –
Cn1ncc2c(NCCc3ccc(O)cc3)ncnc21 | inactive | Active | 16% | 14% | Active | – | – | – | – | – | –
Cn1ncc2c(NCCc3ccccc3F)ncnc21 | inactive | Active | 10% | – | – | – | – | – | – | – | –
Cn1ncc2c(NCc3ccccc3F)ncnc21 | inactive | Active | 14% | – | – | – | – | – | – | – | –
Cn1ncc2c(NCCc3c(F)cccc3Cl)ncnc21 | inactive | Active | 14% | 6% | inactive | – | – | – | – | – | –
NC[C@H]1O[C@H](O[C@H]2[C@H](O)[C@@H](O[C@H]3O[C@H](CO)[C@@H](O)[C@H](N)[C@H]3O)[C@H](N)C[C@@H]2N)[C@H](O)[C@@H](O)[C@@H]1O [KANAMYCIN] | – | – | – | – | – | 6 mm | 0 mm | 30 mm | 0 mm | 22 mm | 0 mm
CC(C)(C)n1ncc2c(NCc3ccco3)ncnc21 | inactive | Active | 17% | – | – | – | – | – | – | – | –
CC(C)(C)n1ncc2c(NCCO)ncnc21 | – | – | – | – | – | 0 mm | 0 mm | 12 mm | 20 mm | 8 mm | 12 mm
CC(C)(C)n1ncc2c(NCCc3c(F)cccc3Cl)ncnc21 | inactive | Active | 17% | 10% | inactive | – | – | – | – | – | –
Cn1ncc2c(NCCc3ccc(Cl)cc3Cl)ncnc21 | inactive | Active | 28% | 8% | Active | – | – | – | – | – | –
CC(C)(C)n1ncc2c(NCc3ccccc3)ncnc21 | inactive | Active | 15% | – | – | – | – | – | – | – | –
CC(C)(C)n1ncc2c(NCCc3c(Cl)cccc3Cl)ncnc21 | inactive | Active | 12% | – | – | – | – | – | – | – | –
Cn1ncc2c(NCCc3cccc(F)c3)ncnc21 | inactive | Active | 17% | – | – | – | – | – | – | – | –
CC(C)(C)n1ncc2c(NCc3ccc(Cl)c(Cl)c3)ncnc21 | inactive | Active | 21% | – | – | – | – | – | – | – | –
Cn1ncc2c(NCc3ccc(F)cc3)ncnc21 | inactive | Active | 20% | – | – | – | – | – | – | – | –
Cn1ncc2c(NCCc3c[nH]c4ccccc34)ncnc21 | inactive | Active | 14% | – | – | 0 mm | 0 mm | 14 mm | 0 mm | 12 mm | 0 mm
Cn1ncc2c(NCCc3ccc(F)cc3)ncnc21 | inactive | Active | 11% | – | – | – | – | – | – | – | –
Cn1ncc2c(NCc3ccc(Cl)c(Cl)c3)ncnc21 | inactive | Active | 24% | 6% | Active | – | – | – | – | – | –
Cn1ncc2c(NCc3ccccc3)ncnc21 | inactive | Active | 13% | – | – | – | – | – | – | – | –
